According to patent US20050004124A1, “THERAPIES RELATING TO COMBINATIONS OF ALDOSE REDUCTASE INHIBITORS AND CYCLOOXYGENASE-2 INHIBITORS” (priority 2001, published 2005):

| Compound | melting point [°C] |
| --- | --- |
| O=c1ccc(S(=O)(=O)c2oc3ccccc3c2O)n[nH]1 [Example 16, 6-(3-Hydroxy-benzofuran-2-sulfonyl)-2H-pyridazin-3-one] | 186 to 189 |
| O=c1ccc(S(=O)(=O)c2[nH]c3ccccc3c2Cl)n[nH]1 [Example 36, 6-(3-Chloro-indole-2-sulfonyl)-2H-pyridazin-3-one] | 250 |
| Cn1c(S(=O)(=O)c2ccc(=O)[nH]n2)cc2ccccc21 [Example 40, 6-(N-Methylindole-2-sulfonyl)-2H-pyridazin-3-one] | 233 to 235 |
